Measurements from the COVID Moonshot data (paper PMC11187573), “Identification of SARS-CoV-2 Mpro inhibitors through deep reinforcement learning for de novo drug design and computational chemistry approaches” (RSC Medicinal Chemistry, 2024).
pIC50: −log10 of the molar value.

Columns and labels:
[1] = target: SARS-CoV-2 Main Protease (SARS-CoV-2) (UniProt P0DTD1)
[2] = target: SARS-CoV-2 Main Protease (SARS-CoV-2) (UniProt P0DTD1); remark: listed apart in the source

N#Cc1cccc(NC(=O)Nc2cncc(N)c2)c1
relative solubility at 20 uM: 1 | relative solubility at 100 uM: 1 | inhibition ([1]; 50.0 µM): 57.2% | inhibition ([2]; 20.0 µM): 9.09% | inhibition ([2]; 50.0 µM): 48.4%

C=CC(=O)N(c1ccc(C(C)(C)C)cc1)C(C(=O)Nc1ccc(OC)cc1C)c1cccnc1 (stereo not given)
relative solubility at 20 uM: 0.97 | relative solubility at 100 uM: 0.57 | inhibition ([1]; 50.0 µM): 22.4% | inhibition ([2]; 20.0 µM): 0% | inhibition ([2]; 50.0 µM): -2.25%

COc1ccc2c(c1)C(C(=O)Nc1cncnc1C)CCC2 (stereo not given)
relative solubility at 20 uM: 1 | relative solubility at 100 uM: 1 | inhibition ([1]; 20.0 µM): 6.97% | inhibition ([1]; 50.0 µM): -24.1% | inhibition ([2]; 50.0 µM): 2.78%

CCOCC(=O)NCc1ccc(CNC(=O)Cn2nnc3ccccc32)cc1
relative solubility at 20 uM: 0.99 | relative solubility at 100 uM: 1 | inhibition ([1]; 20.0 µM): 1.82% | inhibition ([1]; 50.0 µM): 1.31% | inhibition ([2]; 50.0 µM): 0%

COc1ccc2c(c1)C(C(=O)Nc1cnccc1-n1cccn1)CCC2 (stereo not given)
relative solubility at 20 uM: 0.99 | relative solubility at 100 uM: 0.95 | inhibition ([1]; 20.0 µM): -15.2% | inhibition ([1]; 50.0 µM): 7.3% | inhibition ([2]; 50.0 µM): 0%

O=C(C1CCN(c2ccncc2)CC1)N1CCOCC1
relative solubility at 20 uM: 1 | relative solubility at 100 uM: 1 | inhibition ([1]; 50.0 µM): -22.6% | inhibition ([2]; 20.0 µM): 0% | inhibition ([2]; 50.0 µM): 0%

Cc1[nH]ncc1NC(=O)Cc1cccc(Cl)c1
relative solubility at 20 uM: 0.99 | relative solubility at 100 uM: 1 | inhibition ([1]; 20.0 µM): 3.64% | inhibition ([1]; 50.0 µM): 6.93% | inhibition ([2]; 50.0 µM): 52.1%

NC(=O)[C@@H]1CN(C2CCOCC2)C[C@H]1c1ccccc1 (stereo in doubt)
relative solubility at 20 uM: 1 | relative solubility at 100 uM: 1 | inhibition ([1]; 20.0 µM): -22.2% | inhibition ([1]; 50.0 µM): -23% | inhibition ([2]; 20.0 µM): 0% | inhibition ([2]; 50.0 µM): 0%

Cc1ccccc1CN1CCN(C(=O)C(F)C(C)C)CC1 (stereo not given)
relative solubility at 20 uM: 1 | relative solubility at 100 uM: 1 | inhibition ([1]; 20.0 µM): 2.74% | inhibition ([1]; 50.0 µM): 6.7% | inhibition ([2]; 20.0 µM): 0% | inhibition ([2]; 50.0 µM): 10.3%

Cc1ccncc1NC(=O)Cc1cncc(Cl)c1
relative solubility at 20 uM: 1 | relative solubility at 100 uM: 1.01 | inhibition ([1]; 20.0 µM): 28.8% | inhibition ([1]; 50.0 µM): 46% | inhibition ([2]; 50.0 µM): 71.4%

CCSCC1CCN(c2ccc(S(N)(=O)=O)cc2)CC1
relative solubility at 20 uM: 1 | relative solubility at 100 uM: 1.01 | inhibition ([1]; 50.0 µM): -25.8% | inhibition ([2]; 20.0 µM): 26% | inhibition ([2]; 50.0 µM): 40.2%

CC(C)(C)CC(=O)C(C#N)C(=O)Nc1ccccc1 (stereo not given)
relative solubility at 20 uM: 1 | relative solubility at 100 uM: 1 | inhibition ([1]; 50.0 µM): 21.6% | inhibition ([2]; 20.0 µM): 2.52% | inhibition ([2]; 50.0 µM): 0%

C=CC(=O)N(c1ccc(C(C)(C)C)cc1)C(C(=O)NCCc1cccc(F)c1)c1cccnc1 (stereo not given)
relative solubility at 20 uM: 0.98 | relative solubility at 100 uM: 0.55 | inhibition ([1]; 20.0 µM): 63.3% | inhibition ([1]; 50.0 µM): 83.4% | pIC50 [2]: 5.47 | inhibition ([2]; 20.0 µM): 91.8% | inhibition ([2]; 50.0 µM): 100%

O=C(Nc1cccc(-c2cc[nH]n2)c1)C(O)c1cccnc1 (stereo not given)
relative solubility at 20 uM: 1 | relative solubility at 100 uM: 1 | inhibition ([1]; 50.0 µM): 10.4% | inhibition ([2]; 20.0 µM): 0% | inhibition ([2]; 50.0 µM): 0%

CCCC(C(=O)Nc1cnccc1C)c1cccc(Cl)c1 (stereo not given)
relative solubility at 20 uM: 1 | relative solubility at 100 uM: 0.99 | inhibition ([1]; 20.0 µM): 77.9% | inhibition ([1]; 50.0 µM): 90.6% | pIC50 [2]: 5.26 | inhibition ([2]; 50.0 µM): 78.3%

Cc1ccncc1NC(=O)CC1CCCNC1 (stereo not given)
relative solubility at 20 uM: 1 | relative solubility at 100 uM: 1 | inhibition ([1]; 20.0 µM): -1.91% | inhibition ([1]; 50.0 µM): 16.7% | inhibition ([2]; 50.0 µM): 0%

Cc1ccnc(C)c1NC(=O)C1CC2CC2C1 (stereo not given)
relative solubility at 20 uM: 1 | relative solubility at 100 uM: 1 | inhibition ([1]; 20.0 µM): 10.2% | inhibition ([1]; 50.0 µM): 15.6% | inhibition ([2]; 50.0 µM): 0%

Cc1cc(Cl)cc(NC(=O)Nc2cccnc2)c1
relative solubility at 20 uM: 1 | relative solubility at 100 uM: 1 | inhibition ([1]; 50.0 µM): 12.7% | inhibition ([2]; 20.0 µM): 0% | inhibition ([2]; 50.0 µM): 35.4%

CC(C)(C)NC(=O)C(c1cccnc1)N(C(=O)c1ccco1)c1ccc(C(C)(C)C)cc1 (stereo not given)
relative solubility at 20 uM: 1.01 | relative solubility at 100 uM: 0.99 | inhibition ([1]; 20.0 µM): 74% | inhibition ([1]; 50.0 µM): 86.6% | inhibition ([2]; 50.0 µM): 23.9%
